Test results as given in PMC9894841, “Characterisation of a cyclic peptide that binds to the RAS binding domain of phosphoinositide 3-kinase p110α” (Scientific Reports, 2023).
pKd: −log10 of the molar value. “And” between values parts separate entries of the source, which are not always exact repeats. Equal entries are not always repeated. “Also recorded” adds a separate entry of the source. Residues, ends and D or L forms follow the SMILES beside them.

Columns and labels:
H1792 cells = test: Western blot of phospho-AKT / phospho-ERK in H1792 cells; format: cell-based, human; settings: 4 h
Description: We treated the human lung cancer cell line H1792, growing at steady-state in Roswell Park Memorial Institute (RPMI) 1640 media with 10% Foetal Calf Serum (FCS), with the seven cyclic peptides at three different concentrations (2, 10 and 50 µM) for 4 h. After treatment we measured the effect of the peptides on the phosphorylation levels of AKT (pAKT-Ser473), a key downstream effector of p110α activity. […] In contrast, the phosphorylation levels of ERK (p-ERK), which is a downstream effector of the RAS/RAF/MEK/ERK pathway and is independent of p110α activity, were not affected.
The next day, 1 ml of medium was removed and the cells were treated with different peptide concentrations for 4 h. All peptides were dissolved in 25 mM Tris pH8, 100 mM NaCl and 1 mM TCEP. Cells were then harvested and lysed for SDS-PAGE and western blot analysis. Anti-calnexin antibody was obtained from Abcam. Antibodies directed against phospho-T202/Y204-ERK, ERK, phospho-S473-AKT and AKT were obtained from Cell Signaling. After western blotting, calnexin, AKT and phospho-AKT signals were quantified using ImageJ and statistical tests were done using Prism software.

p110α (p110α/p85α) = p110α (p110α/p85α) (Homo sapiens, UniProt P42336); test: Microscale thermophoresis (MST) binding to labelled p110α/p85α
p110α = p110α (Homo sapiens, UniProt P42336); test: NMR STD and Water-LOGSY interaction with p110α; format: binding; settings: 1 mM peptide, 8 µM p110α
Description: Here we chose Nuclear Magnetic Resonance (NMR) as an orthogonal technique to detect the cyclo-CRVLIR binding to p110α. We applied two commonly used NMR-based techniques that can detect protein/ compound interaction: STD (Saturation transfer difference), and Water-LOGSY (water-ligand observed through gradient spectroscopy)[34],[35].
NMR experiments were performed at 20 °C using a Bruker Avance IIIHD spectrometer operating at 700 MHz. STD experiments employed off-resonance saturation (2 s) at − 40 ppm, and on-resonance at − 1 ppm. Waterlogsy experiments used a mixing time of 1.5 s.

[1] = Solubility of the peptides (in words); format: physicochemical
Sm-KRAS/Lg-RBDα = target: T1, Sm-KRAS/Lg-RBDα (Homo sapiens, UniProt P42336); test: NanoBiT Biochemical Assay (NBBA) Sm-KRAS/Lg-RBDα; settings: HEK293 cell lysate, 50 µM
T1 construct: Lg-BiT fused to the RBD of either p110α, p110 δ or p110γ; expressed in transfected cells; host or cells: HEK293 (lysate)
From the text: We next sought to determine whether cyclo-CRVLIR binds specifically to p110α or if it can also interact with other PI3K isoforms. We chose the NBBA (NanoBiT Biochemical Assay), which was previously developed by our laboratory, as a tool to detect if cyclo-CRVLIR could inhibit the interaction of RAS with p110α, p110 δ and p110γ[36]. The NBBA is biochemical adaptation of the NanoBiT cellular assay that is based on the split luciferase NanoLuc system that uses separate Large-BiT (Lg-BiT) and Small-BiT (Sm-BiT) components, each fused to a protein of interest. When the Lg-BiT and Sm-BiT proteins are brought into close proximity, upon the binding of their cognate target proteins, they produce a luminescence signal. […] Cells were harvested at 48 h post-transfection and the cell lysates tested for the interaction of Sm-KRAS with each of the PI3K binding isoforms in the presence or absence of 50 µM cyclo-CRVLIR.
The production of the Sm-KRAS, and the Lg-RBD- of p110α, β, δ, γ constructs and lysate are described in detail in a previous report. The cell lysate was treated with 50 µM cyclo-CRVLIR for 20–30 min before detection by the addition of the Nano-Glo.

p110α/KRAS interaction = p110α/KRAS interaction (Homo sapiens, UniProt P42336); test: MST competition assay of the p110α/KRAS interaction; format: binding; settings: 20 µM peptide
Description: We next wanted to test whether the cyclo-CRVLIR peptide is capable of inhibiting the p110α/KRAS interaction.
Measurements were performed using a NanoTemper Monolith™ NT.115 instrument (NanoTemper Technologies GmbH, München, Germany). Protein samples were labelled with the amine reactive dye NT-647 (or NT-495) using the Monolith™ NT.115 Protein Labeling Kit RED-NHS (or Monolith™ NT.115 Protein Labeling Kit BLUE-NHS). Labelling levels (generally in the range 0.3–0.4 dye molecules per protein molecule) were determined using calculated extinction coefficients for the protein and ε647 = 250,000 M^−1 cm^−1 (or ε495 = 70,000 M^−1 cm^−1) for the dye concentration. In a typical experiment […] aliquots of a 100 nM stock solution of labelled protein were mixed with […] aliquots of a serial dilution of binding partner. These solutions were then loaded into standard treated capillaries and MST measurements were performed at 25 °C using 20–40% LED power and 40–60% IR-Laser power. The laser Laser-On time was 30 s and Laser-Off time 5 s. All measurements were performed at least five times.

H1373 cells = test: Western blot of phospho-AKT / phospho-ERK in H1373 cells; format: cell-based, human; settings: 4 h

Sequence of p110α (p110α/p85α) (P42336 whole entry, species assumed): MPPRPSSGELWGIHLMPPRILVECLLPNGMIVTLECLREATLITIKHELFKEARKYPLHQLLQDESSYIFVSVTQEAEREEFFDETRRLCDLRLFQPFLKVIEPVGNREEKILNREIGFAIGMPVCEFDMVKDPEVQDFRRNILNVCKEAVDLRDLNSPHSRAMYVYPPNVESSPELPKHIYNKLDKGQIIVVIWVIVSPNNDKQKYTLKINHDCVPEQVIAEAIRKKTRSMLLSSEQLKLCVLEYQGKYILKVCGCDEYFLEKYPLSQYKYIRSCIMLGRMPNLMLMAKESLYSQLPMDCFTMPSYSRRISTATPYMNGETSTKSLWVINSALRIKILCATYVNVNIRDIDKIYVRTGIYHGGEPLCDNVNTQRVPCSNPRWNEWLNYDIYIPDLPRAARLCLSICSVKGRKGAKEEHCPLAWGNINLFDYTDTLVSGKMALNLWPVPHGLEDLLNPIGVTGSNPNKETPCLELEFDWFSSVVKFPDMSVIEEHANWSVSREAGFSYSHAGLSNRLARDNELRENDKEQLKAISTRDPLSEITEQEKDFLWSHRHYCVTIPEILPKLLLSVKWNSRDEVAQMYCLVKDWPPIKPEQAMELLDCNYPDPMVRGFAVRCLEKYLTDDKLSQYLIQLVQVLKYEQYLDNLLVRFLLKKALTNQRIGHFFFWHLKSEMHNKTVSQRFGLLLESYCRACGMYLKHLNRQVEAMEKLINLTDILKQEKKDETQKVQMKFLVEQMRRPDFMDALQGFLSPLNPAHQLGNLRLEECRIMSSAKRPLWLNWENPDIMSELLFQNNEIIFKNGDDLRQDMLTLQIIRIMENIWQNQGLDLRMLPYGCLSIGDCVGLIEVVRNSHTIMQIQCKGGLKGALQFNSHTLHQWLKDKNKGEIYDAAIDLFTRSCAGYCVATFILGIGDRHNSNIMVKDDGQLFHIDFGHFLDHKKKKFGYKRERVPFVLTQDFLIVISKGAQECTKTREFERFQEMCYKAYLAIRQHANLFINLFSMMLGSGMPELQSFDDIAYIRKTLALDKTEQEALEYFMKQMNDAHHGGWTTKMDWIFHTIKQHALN
Sequence of p110α (p110α/p85α) (P27986 whole entry partner, species assumed): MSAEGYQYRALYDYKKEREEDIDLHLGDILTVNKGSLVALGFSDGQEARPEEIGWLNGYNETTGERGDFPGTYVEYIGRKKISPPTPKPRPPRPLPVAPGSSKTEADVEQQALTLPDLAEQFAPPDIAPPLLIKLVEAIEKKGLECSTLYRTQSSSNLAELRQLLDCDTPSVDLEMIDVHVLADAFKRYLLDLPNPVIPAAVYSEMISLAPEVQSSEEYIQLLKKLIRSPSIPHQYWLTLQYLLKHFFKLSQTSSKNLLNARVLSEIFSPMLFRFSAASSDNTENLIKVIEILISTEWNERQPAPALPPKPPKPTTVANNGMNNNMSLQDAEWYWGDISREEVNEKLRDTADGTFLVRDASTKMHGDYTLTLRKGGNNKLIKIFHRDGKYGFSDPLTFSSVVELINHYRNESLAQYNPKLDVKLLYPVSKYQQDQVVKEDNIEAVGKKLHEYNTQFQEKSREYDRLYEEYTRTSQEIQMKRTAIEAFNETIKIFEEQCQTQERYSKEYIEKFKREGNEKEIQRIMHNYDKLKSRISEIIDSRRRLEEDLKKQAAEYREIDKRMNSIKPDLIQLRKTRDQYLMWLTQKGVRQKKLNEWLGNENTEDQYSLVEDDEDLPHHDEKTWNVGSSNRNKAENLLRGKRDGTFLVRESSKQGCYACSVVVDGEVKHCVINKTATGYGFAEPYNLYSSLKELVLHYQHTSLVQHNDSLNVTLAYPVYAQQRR
Sequence of p110α/KRAS interaction (P42336 whole entry, species assumed): as the sequence (P42336 whole entry, species assumed) above
Sequence of p110α/KRAS interaction (P27986 whole entry partner, species assumed): as the sequence (P27986 whole entry partner, species assumed) above
T1 sequence (P42336 187-289 limits assumed): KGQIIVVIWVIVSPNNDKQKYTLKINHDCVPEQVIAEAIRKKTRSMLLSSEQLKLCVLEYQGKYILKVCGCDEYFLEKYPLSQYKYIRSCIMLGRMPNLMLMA
Sequence of p110α (P42336 whole entry, species assumed): as the sequence (P42336 whole entry, species assumed) above
Sequence of p110α (P27986 whole entry partner, species assumed): as the sequence (P27986 whole entry partner, species assumed) above

CC[C@H](C)[C@@H]1NC(=O)[C@H](CC(C)C)NC(=O)[C@H](C(C)C)NC(=O)[C@H](CCCNC(=N)N)NC(=O)[C@H](CS)NC(=O)[C@H](CCCNC(=N)N)NC1=O [cyclo-CRVLIR, Cyclo-CRVLIR] (cyclo(CRVLIR))
effect on phosphorylation levels of ERK (p-ERK) (H1792 cells): not affected
effect on phospho-AKT (pAKT-Ser473) levels (H1792 cells; RPMI 1640 10% FCS, 2, 10 and 50 µM (also 4, 20 and 100 µM)): dose dependent effect; also recorded: reduces the levels of pAKT
increase in affinity for p110α over cyclo-CRVLAA (p110α (p110α/p85α); MST): ~120 fold
pKd (p110α (p110α/p85α); labelled protein 100 nM, 25 °C): 5.54 and 5.52
interaction with p110α by STD and Water-LOGSY NMR (p110α): clear signal of interaction
solubility in words [1]: more soluble than the parent peptide cyclo-CRVLAA; also recorded: significantly more soluble than our original cyclo-CRVLAA peptide
inhibition of the Sm-KRAS/Lg-RBDα interaction signal (Sm-KRAS/Lg-RBDα): reduction in the interaction signal; also recorded: able to inhibit
p110α/KRAS interaction in the presence of the peptide (p110α/KRAS interaction): blocked; also recorded: did not detect the p110α/KRAS interaction; also recorded: inhibits the p110α/RAS interaction
effect on phospho-AKT (pAKT-S473) levels (H1373 cells; H1373 cells, 4, 20 and 100 µM): inhibition of pAKT; also recorded: reduces the levels of pAKT
effect on phosphorylation levels of ERK (p-ERK) (H1373 cells; H1373 cells): not affected
